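Cells were grown in 96-well plates and exposed to each compound for 48 hours at five concentrations; endpoints were interpolated linearly between bracketing concentrations, or set to the highest concentration if not reached. GI50: concentration for 50% inhibition of growth.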 Calls of active or inactive are those of the source. Rule as the data show it: active = GI50 up to about 1.1 µM and inactive = higher.
Legend:
Assay in all cases: NCI tumour cell line growth inhibition, 48 h
HCT-15 = system: HCT-15
SN12C = system: SN12C
OVCAR-4 = system: OVCAR-4
OVCAR-3 = system: OVCAR-3
NCI-H460 = system: NCI-H460
MOLT-4 = system: MOLT-4
M14 = system: M14
SK-OV-3 = system: SK-OV-3
NCI-H522 = system: NCI-H522
NCI-H23 = system: NCI-H23
UO-31 = system: UO-31
SF-268 = system: SF-268
CCRF-CEM = system: CCRF-CEM
OVCAR-5 = system: OVCAR-5
HCC 2998 = system: HCC 2998
SK-MEL-28 = system: SK-MEL-28
IGROV-1 = system: IGROV-1
TK-10 = system: TK-10

Compound | GI50 (HCT-15) [µM] | GI50 (SN12C) | GI50 (OVCAR-4) | GI50 (OVCAR-3) | GI50 (NCI-H460) | GI50 (MOLT-4) | GI50 (M14) | GI50 (SK-OV-3) | GI50 (NCI-H522) | GI50 (NCI-H23) | GI50 (UO-31) | GI50 (SF-268) | GI50 (CCRF-CEM) | GI50 (OVCAR-5) | GI50 (HCC 2998) | GI50 (SK-MEL-28) | GI50 (IGROV-1) | GI50 (TK-10)
Cc1c2n(c3ccccc13)CC1C2N(C)OC1(C)C (configuration not stated) | > 100 | > 100 µM (inactive) | > 100 µM (inactive) | > 100 µM (inactive) | > 100 µM (inactive) | > 100 µM (inactive) | > 100 µM (inactive) | > 100 µM (inactive) | > 100 µM (inactive) | > 100 µM (inactive) | 86.7 µM (inactive) | > 100 µM (inactive) | > 100 µM (inactive) | > 100 µM (inactive) | > 100 µM (inactive) | > 100 µM (inactive) | – | –
COC(=O)N/N=C(\C)CC(=O)Nc1cccc([N+](=O)[O-])c1 | – | – | – | > 100 µM (inactive) | > 100 µM (inactive) | > 100 µM (inactive) | > 100 µM (inactive) | > 100 µM (inactive) | > 100 µM (inactive) | > 100 µM (inactive) | > 100 µM (inactive) | > 100 µM (inactive) | > 100 µM (inactive) | > 100 µM (inactive) | > 100 µM (inactive) | > 100 µM (inactive) | > 100 µM (inactive) | > 100 µM (inactive)
CCOC(=O)C(=O)Nc1c(C(C)C)cccc1C(C)C | > 100 | > 100 µM (inactive) | > 100 µM (inactive) | > 100 µM (inactive) | > 100 µM (inactive) | > 100 µM (inactive) | > 100 µM (inactive) | > 100 µM (inactive) | > 100 µM (inactive) | > 100 µM (inactive) | > 100 µM (inactive) | > 100 µM (inactive) | > 100 µM (inactive) | – | > 100 µM (inactive) | > 100 µM (inactive) | > 100 µM (inactive) | > 100 µM (inactive)
CCC1C(=O)OCc2c1cc1n(c2=O)CCC12OCCO2 (configuration not stated) | > 100 | > 100 µM (inactive) | > 100 µM (inactive) | – | > 100 µM (inactive) | > 100 µM (inactive) | > 100 µM (inactive) | > 100 µM (inactive) | > 100 µM (inactive) | > 100 µM (inactive) | > 100 µM (inactive) | > 100 µM (inactive) | > 100 µM (inactive) | > 100 µM (inactive) | 63.8 µM (inactive) | > 100 µM (inactive) | > 100 µM (inactive) | > 100 µM (inactive)
COC(=O)C(CC(=O)Nc1ccc(C)cc1)C(=O)C(=O)Nc1c(C(C)C)cccc1C(C)C (configuration not stated) | 48.6 | > 100 µM (inactive) | > 100 µM (inactive) | – | > 100 µM (inactive) | > 100 µM (inactive) | > 100 µM (inactive) | > 100 µM (inactive) | > 100 µM (inactive) | > 100 µM (inactive) | > 100 µM (inactive) | > 100 µM (inactive) | > 100 µM (inactive) | > 100 µM (inactive) | > 100 µM (inactive) | > 100 µM (inactive) | > 100 µM (inactive) | > 100 µM (inactive)
CC(=O)CCn1ncc(Cl)c(Cl)c1=O | 6.55 | 14.3 µM (inactive) | 9.95 µM (inactive) | 13.7 µM (inactive) | 20.2 µM (inactive) | 20.6 µM (inactive) | 15.7 µM (inactive) | – | – | 15 µM (inactive) | 20 µM (inactive) | 12.1 µM (inactive) | 21.9 µM (inactive) | 19.1 µM (inactive) | 9.51 µM (inactive) | 13.8 µM (inactive) | 18.7 µM (inactive) | 48.6 µM (inactive)
O=[N+]([O-])c1ccc(NSc2ccccc2)cc1 | 19.8 | 17.2 µM (inactive) | – | 34.8 µM (inactive) | 18.3 µM (inactive) | 10.8 µM (inactive) | 20.5 µM (inactive) | 29.9 µM (inactive) | 17.2 µM (inactive) | 45.6 µM (inactive) | 26.8 µM (inactive) | 28.2 µM (inactive) | 3.03 µM (inactive) | 89.7 µM (inactive) | 50.6 µM (inactive) | 45.3 µM (inactive) | 10.7 µM (inactive) | 44.7 µM (inactive)
O=S1(=O)CSc2ccc3ccccc3c2-c2c1ccc1ccccc21 | – | > 100 µM (inactive) | > 100 µM (inactive) | > 100 µM (inactive) | > 100 µM (inactive) | > 100 µM (inactive) | > 100 µM (inactive) | – | > 100 µM (inactive) | > 100 µM (inactive) | > 100 µM (inactive) | > 100 µM (inactive) | > 100 µM (inactive) | > 100 µM (inactive) | > 100 µM (inactive) | > 100 µM (inactive) | > 100 µM (inactive) | > 100 µM (inactive)
COc1ccc(CCn2c(=O)c3ccccc3n(C)c2=O)cc1 | – | 80.7 µM (inactive) | > 100 µM (inactive) | 34.4 µM (inactive) | 60.1 µM (inactive) | 33.8 µM (inactive) | 26.1 µM (inactive) | 14.6 µM (inactive) | 24.2 µM (inactive) | 48.6 µM (inactive) | 40.4 µM (inactive) | 56.4 µM (inactive) | 23.7 µM (inactive) | > 100 µM (inactive) | 21 µM (inactive) | 57.5 µM (inactive) | > 100 µM (inactive) | 54.8 µM (inactive)
NC(=S)N/N=C1\C(=O)N(c2cccc([N+](=O)[O-])c2)C(=O)C1C(=O)Nc1cccc([N+](=O)[O-])c1 (configuration not stated) | > 100 | > 100 µM (inactive) | > 100 µM (inactive) | > 100 µM (inactive) | – | > 100 µM (inactive) | > 100 µM (inactive) | > 100 µM (inactive) | > 100 µM (inactive) | > 100 µM (inactive) | > 100 µM (inactive) | > 100 µM (inactive) | > 100 µM (inactive) | > 100 µM (inactive) | > 100 µM (inactive) | > 100 µM (inactive) | > 100 µM (inactive) | > 100 µM (inactive)
CN1CCn2c(Br)ccc2C1=O | > 100 | > 100 µM (inactive) | > 100 µM (inactive) | > 100 µM (inactive) | > 100 µM (inactive) | > 100 µM (inactive) | > 100 µM (inactive) | – | > 100 µM (inactive) | > 100 µM (inactive) | > 100 µM (inactive) | > 100 µM (inactive) | > 100 µM (inactive) | – | > 100 µM (inactive) | > 100 µM (inactive) | > 100 µM (inactive) | > 100 µM (inactive)
CC1OC(OC2C(OC(=O)[C@]34CCC(C)(C)CC3C3=CCC5[C@@]6(C)C[C@H](O)[C@H](OC7OC(COC8OC(CO)C(O)C(O)C8O)C(O)C(O)C7O)[C@@](C)(C(=O)O)C6CC[C@@]5(C)C3(C)CC4)OCC(O)C2O)C(O)C(O)C1OC1OCC(O)C(O)C1O (some centres not stated) | > 100 | > 100 µM (inactive) | – | > 100 µM (inactive) | > 100 µM (inactive) | > 100 µM (inactive) | – | > 100 µM (inactive) | > 100 µM (inactive) | > 100 µM (inactive) | > 100 µM (inactive) | > 100 µM (inactive) | > 100 µM (inactive) | > 100 µM (inactive) | > 100 µM (inactive) | > 100 µM (inactive) | > 100 µM (inactive) | > 100 µM (inactive)
